For 18 compounds, IC50 results are on record in patent US20180250280A1 (BAYER PHARMA AKTIENGESELLSCHAFT, priority 2015, published 2018).

For one assay, the target named is T1, human plasma kallikrein (Homo sapiens, UniProt P03952).
T1 construct: purchased Kordia
The assay can be described thus: Determination of the plasma kallikrein activity (fluorogenic peptide substrate, AMC cleavage). In kind it is biochemical. Particulars: plasma kallikrein from Kordia 0.6 nM; substrate H-Pro-Phe-Arg-AMC 10 μM; 30 min at 22° C.; in some cases averages from multiple determinations. On the procedure: To determine the plasma kallikrein inhibition of the substances according to the invention, a biochemical test system is used which utilizes the reaction of a peptidic plasma kallikrein substrate to determine the enzymatic activity of human plasma kallikrein. Here, plasma kallikrein cleaves from the peptic plasma kallikrein substrate the C-terminal aminomethylcoumarin (AMC), the fluorescence of which is measured. The determinations are conducted in microtitre plates.
Test substances are dissolved in dimethyl sulfoxide and serially diluted in dimethyl sulfoxide (3000 μM to 0.0078 μM; resulting final concentrations in the test: 50 μM to 0.00013 μM). 1 μl of the diluted substance solutions is placed into each of the wells of white microtitre plates from Greiner (384 wells). 20 μl of assay buffer (50 mM Tris/HCl pH 7.4; 100 mM sodium chloride solution; 5 mM calcium chloride solution; 0.1% of bovine serum albumin) and 20 μl of plasma kallikrein from Kordia (0.6 nM in assay buffer) are then added successively. After 15 min of incubation, the enzyme reaction is started by addition of 20 μl of the substrate H-Pro-Phe-Arg-AMC dissolved in assay buffer (10 μM in assay buffer) from Bachem, the mixture is incubated at room temperature (22° C.) for 30 min and fluorescence is then measured (excitation: 360 nm, emission: 460 nm). The measured emissions of the test batches with test substance are compared to those of control batches without test substance (only dimethyl sulfoxide instead of test substance in dimethyl sulfoxide), and IC50 values are calculated from the concentration/activity relationships. Activity data from this test are given in Table B below (in some cases as averages from multiple individual determinations): […]

In another assay the target is T2, human factor XIa (Homo sapiens, UniProt P03951).
T2 construct: purchased Kordia
T2 sequence (P03951 388-625 limits assumed): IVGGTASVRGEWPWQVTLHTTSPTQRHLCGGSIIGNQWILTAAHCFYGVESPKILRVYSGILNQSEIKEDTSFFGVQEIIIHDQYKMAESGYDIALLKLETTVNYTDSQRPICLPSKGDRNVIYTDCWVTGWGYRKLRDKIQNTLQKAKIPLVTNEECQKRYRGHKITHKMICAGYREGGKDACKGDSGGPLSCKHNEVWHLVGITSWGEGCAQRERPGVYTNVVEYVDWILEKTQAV
T2 sequence (P03951 19-387 partner limits assumed): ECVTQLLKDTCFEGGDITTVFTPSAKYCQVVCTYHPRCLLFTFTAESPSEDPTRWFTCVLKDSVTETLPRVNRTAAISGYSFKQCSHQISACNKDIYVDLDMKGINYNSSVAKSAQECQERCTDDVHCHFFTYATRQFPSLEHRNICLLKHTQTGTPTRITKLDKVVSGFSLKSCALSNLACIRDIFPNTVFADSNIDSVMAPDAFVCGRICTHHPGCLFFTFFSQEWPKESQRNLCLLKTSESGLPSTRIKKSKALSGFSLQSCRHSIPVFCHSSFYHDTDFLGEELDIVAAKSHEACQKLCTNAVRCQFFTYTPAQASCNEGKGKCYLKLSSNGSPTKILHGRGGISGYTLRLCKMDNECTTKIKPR
Kind of assay: Measurement of FXIa inhibition (fluorogenic peptide substrate, AMC cleavage). Particulars: factor XIa from Kordia 0.45 nM; substrate Boc-Glu(OBzl)-Ala-Arg-AMC 10 μM; 30 min at 22° C.; in some cases averages from multiple determinations. In kind it is biochemical. On the procedure: The factor XIa inhibition of the substances according to the invention is determined using a biochemical test system which utilizes the reaction of a peptidic factor XIa substrate to determine the enzymatic activity of human factor XIa. Here, factor XIa cleaves from the peptic factor XIa substrate the C-terminal aminomethylcoumarin (AMC), the fluorescence of which is measured. The determinations are conducted in microtitre plates.
Test substances are dissolved in dimethyl sulfoxide and serially diluted in dimethyl sulfoxide (3000 μM to 0.0078 μM; resulting final concentrations in the test: 50 μM to 0.00013 μM). 1 μl of the diluted substance solutions is placed into each of the wells of white microtitre plates from Greiner (384 wells). 20 μl of assay buffer (50 mM of Tris/HCl pH 7.4; 100 mM of sodium chloride; 5 mM of calcium chloride; 0.1% of bovine serum albumin) and 20 μl of factor XIa from Kordia (0.45 nM in assay buffer) are then added successively. After 15 min of incubation, the enzyme reaction is started by addition of 20 μl of the factor XIa substrate Boc-Glu(OBzl)-Ala-Arg-AMC dissolved in assay buffer (10 μM in assay buffer) from Bachem, the mixture is incubated at room temperature (22° C.) for 30 min and fluorescence is then measured (excitation: 360 nm, emission: 460 nm). The measured emissions of the test batches with test substance are compared to those of control batches without test substance (only dimethyl sulfoxide instead of test substance in dimethyl sulfoxide), and IC50 values are calculated from the concentration/activity relationships. Activity data from this test are given in Table A below (in some cases as averages from multiple individual determinations): […]

T1 sequence (P03952 391-638 limits assumed): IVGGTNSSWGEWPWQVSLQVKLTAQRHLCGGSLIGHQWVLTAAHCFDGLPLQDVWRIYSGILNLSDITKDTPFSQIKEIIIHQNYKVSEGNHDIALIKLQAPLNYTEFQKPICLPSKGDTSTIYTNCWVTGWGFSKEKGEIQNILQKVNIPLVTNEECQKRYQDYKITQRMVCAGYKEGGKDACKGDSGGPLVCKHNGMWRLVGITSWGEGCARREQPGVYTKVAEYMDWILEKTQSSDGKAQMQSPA
T1 sequence (P03952 20-390 partner limits assumed): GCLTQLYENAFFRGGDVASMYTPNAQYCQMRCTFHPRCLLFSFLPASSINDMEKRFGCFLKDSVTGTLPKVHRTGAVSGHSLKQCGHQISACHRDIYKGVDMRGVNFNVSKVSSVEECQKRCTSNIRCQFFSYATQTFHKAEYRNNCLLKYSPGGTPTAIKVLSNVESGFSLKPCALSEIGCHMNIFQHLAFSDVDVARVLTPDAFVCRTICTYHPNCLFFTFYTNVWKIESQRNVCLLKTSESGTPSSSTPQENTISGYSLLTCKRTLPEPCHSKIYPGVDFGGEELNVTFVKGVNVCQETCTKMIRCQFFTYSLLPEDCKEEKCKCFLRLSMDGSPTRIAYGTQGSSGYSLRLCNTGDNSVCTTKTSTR

One may read the IC50 as the concentration needed to halve the response being measured. High values mean weaker potency in that assay, low ones greater potency in that assay. With `COCCC(C(=O)Nc1ccc(C(=O)O)cc1)n1cc(OC)c(-c2cc(Cl)ccc2OCC(F)(F)F)cc1=O` (racemic) [Example 1, 4-[(2-{4-[5-Chloro-2-(2,2,2-trifluoroethoxy)phenyl]-5-methoxy-2-oxopyridin-1(2H)-yl}-4-methoxybutanoyl)amino]benzoic acid], the figures for the IC50 against human plasma kallikrein and against human factor XIa were 55 nM and 1.2 nM, respectively.
On the same counts, the results for `COCCC(C(=O)Nc1ccc(C(N)=O)c(F)c1)n1cc(OC)c(-c2cc(Cl)ccc2OCC(F)(F)F)cc1=O` (racemic) [Example 3, 4-[(2-{4-[5-Chloro-2-(2,2,2-trifluoroethoxy)phenyl]-5-methoxy-2-oxopyridin-1(2H)-yl}-4-methoxybutanoyl)amino]-2-fluorobenzamide] are 100 nM and 14 nM.
The matching figures for `CNC(=O)c1ccc(NC(=O)C(CCOC)n2cc(OC)c(-c3cc(Cl)ccc3OCC(F)(F)F)cc2=O)cn1` (racemic) [Example 4, 5-[(2-{4-[5-Chloro-2-(2,2,2-trifluoroethoxy)phenyl]-5-methoxy-2-oxopyridin-1(2H)-yl}-4-methoxybutanoyl)amino]-N-methylpyridine-2-carboxamide]: 49 nM and 6.5 nM.
On the same counts, the results for `COCCC(C(=O)Nc1ccc2nn(C)cc2c1)n1cc(OC)c(-c2cc(Cl)ccc2OCC(F)(F)F)cc1=O` (racemic) [Example 5, 2-{4-[5-Chloro-2-(2,2,2-trifluoroethoxy)phenyl]-5-methoxy-2-oxopyridin-1(2H)-yl}-4-methoxy-N-(2-methyl-2H-indazol-5-yl)butanamide] are 33 nM and 4.1 nM.
As for `CNC(=O)c1ccc(NC(=O)C(CCOC)n2cc(OC)c(-c3cc(Cl)ccc3OCC(F)(F)F)cc2=O)cc1F` (racemic) [Example 6, 4-[(2-{4-[5-Chloro-2-(2,2,2-trifluoroethoxy)phenyl]-5-methoxy-2-oxopyridin-1(2H)-yl}-4-methoxybutanoyl)amino]-2-fluoro-N-methylbenzamide], the IC50 against human plasma kallikrein came out at 130 nM; at human factor XIa, 19 nM.
On the same counts, the results for `COc1cn(C(CCOC(C)(C)C)C(=O)Nc2ccc(C(=O)O)cc2)c(=O)cc1-c1cc(Cl)ccc1OCC(F)(F)F` (racemic) [Example 7, 4-[(4-tert-Butoxy-2-{4-[5-chloro-2-(2,2,2-trifluoroethoxy)phenyl]-5-methoxy-2-oxopyridin-1(2H)-yl}butanoyl)amino]benzoic acid] are 34 nM and 0.71 nM.
On the same counts, the results for `COc1cn(C(CCOC(C)(C)C)C(=O)Nc2ccc3nn(C)cc3c2)c(=O)cc1-c1cc(Cl)ccc1OCC(F)(F)F` (racemic) [Example 9, 4-tert-Butoxy-2-{4-[5-chloro-2-(2,2,2-trifluoroethoxy)phenyl]-5-methoxy-2-oxopyridin-1(2H)-yl}-N-(2-methyl-2H-indazol-5-yl)butanamide] are 57 nM and 14 nM.
On the same counts, the results for `COc1cn(C(CCOC(C)(C)C)C(=O)Nc2ccc(C(N)=O)c(F)c2)c(=O)cc1-c1cc(Cl)ccc1OCC(F)(F)F` (racemic) [Example 10, 4-[(4-tert-Butoxy-2-{4-[5-chloro-2-(2,2,2-trifluoroethoxy)phenyl]-5-methoxy-2-oxopyridin-1(2H)-yl}butanoyl)amino]-2-fluorobenzamide] are 77 nM and 15 nM.
`COc1cn(C(CCOC(C)(C)C)C(=O)Nc2ccc(C(N)=O)nc2)c(=O)cc1-c1cc(Cl)ccc1OCC(F)(F)F` (racemic) [Example 11, 5-[(4-tert-Butoxy-2-{4-[5-chloro-2-(2,2,2-trifluoroethoxy)phenyl]-5-methoxy-2-oxopyridin-1(2H)-yl}butanoyl)amino]pyridine-2-carboxamide]: the IC50 against human plasma kallikrein turned out to be 87 nM; against human factor XIa, 18 nM.
On the same counts, the results for `CNC(=O)c1ccc(NC(=O)C(CCOC(C)(C)C)n2cc(OC)c(-c3cc(Cl)ccc3OCC(F)(F)F)cc2=O)cn1` (racemic) [Example 12, 5-[(4-tert-Butoxy-2-{4-[5-chloro-2-(2,2,2-trifluoroethoxy)phenyl]-5-methoxy-2-oxopyridin-1(2H)-yl}butanoyl)amino]-N-methylpyridine-2-carboxamide] are 60 nM and 12 nM.
On the same counts, the results for `COc1cn(C(Cc2ccn(C)n2)C(=O)Nc2ccc(C(=O)O)cc2)c(=O)cc1-c1cc(Cl)ccc1OCC(F)(F)F` (racemic) [Example 13, 4-{[2-{4-[5-Chloro-2-(2,2,2-trifluoroethoxy)phenyl]-5-methoxy-2-oxopyridin-1(2H)-yl}-3-(1-methyl-1H-pyrazol-3-yl)propanoyl]amino}benzoic acid] are 14 nM and 1.3 nM.
For the compound `COc1cn(C(Cc2ccn(C)n2)C(=O)Nc2ccc3nn(C)cc3c2)c(=O)cc1-c1cc(Cl)ccc1OCC(F)(F)F` (racemic) [Example 14, 2-{4-[5-Chloro-2-(2,2,2-trifluoroethoxy)phenyl]-5-methoxy-2-oxopyridin-1(2H)-yl}-N-(2-methyl-2H-indazol-5-yl)-3-(1-methyl-1H-pyrazol-3-yl)propanamide], the IC50 was 45 nM against human plasma kallikrein and 9.3 nM on human factor XIa.
With `CNC(=O)c1ccc(NC(=O)C(Cc2ccn(C)n2)n2cc(OC)c(-c3cc(Cl)ccc3OCC(F)(F)F)cc2=O)cn1` (racemic) [Example 15, 5-{[2-{4-[5-Chloro-2-(2,2,2-trifluoroethoxy)phenyl]-5-methoxy-2-oxopyridin-1(2H)-yl}-3-(1-methyl-1H-pyrazol-3-yl)propanoyl]amino}-N-methylpyridine-2-carboxamide], the IC50 at human plasma kallikrein was 35 nM; against human factor XIa it was 6.4 nM.
The matching figures for `COc1cn(C(Cc2ccn(C)n2)C(=O)Nc2ccc(C(N)=O)c(F)c2)c(=O)cc1-c1cc(Cl)ccc1OCC(F)(F)F` (racemic) [Example 16, 4-{[2-{4-[5-Chloro-2-(2,2,2-trifluoroethoxy)phenyl]-5-methoxy-2-oxopyridin-1 (2H)-yl}-3-(1-methyl-1H-pyrazol-3-yl)propanoyl]amino}-2-fluorobenzamide]: 67 nM and 10 nM.
The matching figures for `COc1cn(C(CC2=NOCCC2)C(=O)Nc2ccc3nn(C)cc3c2)c(=O)cc1-c1cc(Cl)ccc1OCC(F)(F)F` (racemic) [Example 24, 2-{4-[5-Chloro-2-(2,2,2-trifluoroethoxy)phenyl]-5-methoxy-2-oxopyridin-1(2H)-yl}-3-(5,6-dihydro-4H-1,2-oxazin-3-yl)-N-(2-methyl-2H-indazol-5-yl)propanamide]: 130 nM and 36 nM.
The matching figures for `COc1cn(C(CCOC(C)(C)C)C(=O)Nc2ccc(C(=O)O)cc2)c(=O)cc1-c1cc(Cl)ccc1OCC(F)F` (racemic) [Example 25, 4-[(4-tert-Butoxy-2-{4-[5-chloro-2-(2,2-difluoroethoxy)phenyl]-5-methoxy-2-oxopyridin-1(2H)-yl}butanoyl)amino]benzoic acid]: 120 nM and 2.4 nM.
With `COc1cn(C(CCOC(C)(C)C)C(=O)Nc2ccc(C(N)=O)c(F)c2)c(=O)cc1-c1cc(Cl)ccc1OCC(F)F` (racemic) [Example 26, 4-[(4-tert-Butoxy-2-{4-[5-chloro-2-(2,2-difluoroethoxy)phenyl]-5-methoxy-2-oxopyridin-1(2H)-yl}butanoyl)amino]-2-fluorobenzamide], the figures for the IC50 against human plasma kallikrein and against human factor XIa were 150 nM and 25 nM, respectively.
On the same counts, the results for `COc1cn(C(CCOC(C)(C)C)C(=O)Nc2ccc(C(N)=O)nc2)c(=O)cc1-c1cc(Cl)ccc1OCC(F)F` (racemic) [Example 27, 5-[(4-tert-Butoxy-2-{4-[5-chloro-2-(2,2-difluoroethoxy)phenyl]-5-methoxy-2-oxopyridin-1(2H)-yl}butanoyl)amino]pyridine-2-carboxamide] are 95 nM and 18 nM.
